Read-outs that look alike come from different tables or passages of the source.
Tests used:
Type in all cases: biochemical
[1] = target: CSNK1D (Homo sapiens (Human), UniProt P48730); experiment: CSNK1D Assay (ADP-Glo, 1 μM ATP); conditions: median, read-out: CSNK1D IC50 [mol/l] (median)
In short: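 Enzyme preincubated with compound 15 min at 22° C in 50 mM HEPES pH 7.5 buffer with 10 mM MgCl2, 1 mM DTT; kinase reaction run at 1 μM ATP with biotinylated peptide substrate. ADP formed was detected by ADP-Glo luminescence as the measure of activity.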

[2] = target: CSNK1A1 (Homo sapiens (Human), UniProt P48729); experiment: CSNK1A1 Assay 2 (ADP-Glo, 1 μM ATP); conditions: median, read-out: CSNK1A1 Assay 2 IC50 [mol/l] (median)
CSNK1A1, sequence (P48729 whole entry): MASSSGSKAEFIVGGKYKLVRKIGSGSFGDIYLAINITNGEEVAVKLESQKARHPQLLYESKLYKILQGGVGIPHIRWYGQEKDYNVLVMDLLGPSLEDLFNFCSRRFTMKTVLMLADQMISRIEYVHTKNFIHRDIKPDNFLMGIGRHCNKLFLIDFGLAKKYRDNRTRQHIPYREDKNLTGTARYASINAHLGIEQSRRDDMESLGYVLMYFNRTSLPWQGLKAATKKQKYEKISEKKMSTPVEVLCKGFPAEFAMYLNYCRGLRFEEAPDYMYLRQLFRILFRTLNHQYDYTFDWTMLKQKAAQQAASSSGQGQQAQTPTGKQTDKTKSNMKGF
In short: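 ADP-Glo luminescence, taken as ADP formed, reports activity against biotinylated phospho-peptide substrate biotin-Ahx-KRRRAL-pS-VASLPGL at 1 μM ATP.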

[3] = target: wild-type Epidermal Growth Factor Receptor (EGFR) (Homo sapiens (Human), UniProt P00533); experiment: WT-EGFR Kinase Assay (TR-FRET, 2 mM ATP)
wild-type Epidermal Growth Factor Receptor (EGFR), sequence (P00533 669-1210): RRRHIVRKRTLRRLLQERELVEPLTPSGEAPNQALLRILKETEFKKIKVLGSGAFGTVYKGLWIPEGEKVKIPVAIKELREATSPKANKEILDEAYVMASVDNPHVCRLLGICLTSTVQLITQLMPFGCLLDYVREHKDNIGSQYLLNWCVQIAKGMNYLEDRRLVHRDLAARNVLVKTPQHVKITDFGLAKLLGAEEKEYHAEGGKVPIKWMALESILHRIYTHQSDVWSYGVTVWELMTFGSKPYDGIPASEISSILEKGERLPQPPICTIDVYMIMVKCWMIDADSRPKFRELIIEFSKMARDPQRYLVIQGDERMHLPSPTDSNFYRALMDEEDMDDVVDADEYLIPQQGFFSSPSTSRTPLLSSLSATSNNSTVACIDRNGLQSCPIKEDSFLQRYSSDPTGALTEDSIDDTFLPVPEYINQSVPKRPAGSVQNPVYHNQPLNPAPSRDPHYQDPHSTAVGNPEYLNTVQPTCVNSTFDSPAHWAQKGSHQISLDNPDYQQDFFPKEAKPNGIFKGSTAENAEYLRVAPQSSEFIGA
In short: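 TR-FRET read-out of biotinylated peptide phosphorylation, taken as the 665/622 nm ratio after EDTA stop and 1 h detection at 22° C. Kinase: GST fusion of human EGFR aa R669–A1210, given a 15 min compound pre-binding step; reaction run at 2 mM ATP.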

[4] = EGFR Wildtyp 2 mM ATP IC50 [mol/l] (median), median or individual measurements
[5] = read-out: EGFR Wildtyp 2 mM ATP IC50 [mol/l] (median), median or individual measurements

CSNK1D, sequence (P48730 whole entry): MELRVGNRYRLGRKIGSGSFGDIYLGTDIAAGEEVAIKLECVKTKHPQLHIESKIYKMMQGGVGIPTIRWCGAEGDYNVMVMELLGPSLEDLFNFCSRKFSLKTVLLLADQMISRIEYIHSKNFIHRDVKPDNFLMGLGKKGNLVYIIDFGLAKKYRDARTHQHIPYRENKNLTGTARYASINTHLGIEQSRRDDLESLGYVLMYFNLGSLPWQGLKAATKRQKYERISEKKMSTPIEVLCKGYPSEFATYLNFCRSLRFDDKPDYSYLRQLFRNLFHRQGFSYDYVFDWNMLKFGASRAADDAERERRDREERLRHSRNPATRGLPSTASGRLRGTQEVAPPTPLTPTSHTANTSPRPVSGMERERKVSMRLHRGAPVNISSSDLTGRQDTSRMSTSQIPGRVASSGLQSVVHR

SMILES | IC50 [1] [nM] | IC50 [2] [nM] | IC50 [3, 4] [nM] | IC50 ([3]; read-out: EGFR Wildtyp 2 mM ATP IC50 [mol/l] (median), median or individual measurements, listed as 084) [nM] | IC50 [3, 5] [nM]
CC1(C)Cc2[nH]c(-c3ccnc(NC(=O)Cc4ccc(F)cc4)c3)c(-c3ccccc3F)c2C(=O)N1 [Example 84, 2-(4-fluorophenyl)-N-{4-[3-(2-fluorophenyl)-6,6-dimethyl-4-oxo-4,5,6,7-tetrahydro-1H-pyrrolo[3,2-c]pyridin-2-yl]pyridin-2-yl}acetamide] | 4.8 | 3.4 | > 20000 | 16000 | 
COCCN(C)C(=O)c1ccc(CC(=O)Nc2cc(-c3[nH]c4c(c3-c3ccc(F)cc3)C(=O)N(C)CC4)ccn2)cc1 [Example 141, 4-[2-({4-[3-(4-fluorophenyl)-5-methyl-4-oxo-4,5,6,7-tetrahydro-1H-pyrrolo[3,2-c]pyridin-2-yl]pyridin-2-yl}amino)-2-oxoethyl]-N-(2-methoxyethyl)-N-methylbenzamide] | 2.7 | 3.6 |  |  | > 20000
CC(C(=O)Nc1cc(-c2[nH]c3ccn(C)c(=O)c3c2-c2ccsc2)ccn1)c1ccc(F)cc1 (racemic) [Example 131, 2-(4-fluorophenyl)-N-{4-[5-methyl-4-oxo-3-(3-thienyl)-4,5-dihydro-1H-pyrrolo[3,2-c]pyridin-2-yl]pyridin-2-yl}propanamide] | 10 | 7 | > 20000 |  | 
CN1CCc2[nH]c(-c3ccnc(NC(=O)C(CC(F)F)c4ccc(F)cc4)c3)c(-c3ccc(F)cc3F)c2C1=O (racemic) [Example 66, N-{4-[3-(2,4-difluorophenyl)-5-methyl-4-oxo-4,5,6,7-tetrahydro-1H-pyrrolo[3,2-c]pyridin-2-yl]pyridin-2-yl}-4,4-difluoro-2-(4-fluorophenyl)butanamide] | 3.2 | 4.4 | > 20000 |  | 
Cc1ccc(-c2c(-c3ccnc(NC(=O)Cc4ccc(F)cc4)c3)[nH]c3c2C(=O)NC(C)(C)C3)cc1 [Example 92, N-{4-[6,6-dimethyl-3-(4-methylphenyl)-4-oxo-4,5,6,7-tetrahydro-1H-pyrrolo[3,2-c]pyridin-2-yl]pyridin-2-yl}-2-(4-fluorophenyl)acetamide] | 5.7 | 4.5 |  |  | > 20000
Cn1ccc2[nH]c(-c3ccnc(NC(=O)C(CC(F)F)c4ccc(F)cc4)c3)c(-c3cccnc3)c2c1=O (racemic) [Example 118, 4,4-difluoro-2-(4-fluorophenyl)-N-{4-[5-methyl-4-oxo-3-(pyridin-3-yl)-4,5-dihydro-1H-pyrrolo[3,2-c]pyridin-2-yl]pyridin-2-yl}butanamide] | 12 | 8.6 | > 20000 |  | 
CC(C(=O)Nc1cc(-c2[nH]c3ccn(C)c(=O)c3c2-c2ccccc2)ccn1)c1ccc(F)cc1 (racemic) [Example 103, 2-(4-fluorophenyl)-N-[4-(5-methyl-4-oxo-3-phenyl-4,5-dihydro-1H-pyrrolo[3,2-c]pyridin-2-yl)pyridin-2-yl]propanamide] | 11 | 5 | > 20000 |  | 
CN1CC(CC2CC2)c2[nH]c(-c3ccnc(NC(=O)C(CC(F)F)c4ccc(F)cc4)c3)c(-c3ccc(F)cc3)c2C1=O (stereo not shown) [Example 64, N-{4-[7-(cyclopropylmethyl)-3-(4-fluorophenyl)-5-methyl-4-oxo-4,5,6,7-tetrahydro-1H-pyrrolo[3,2-c]pyridin-2-yl]pyridin-2-yl}-4,4-difluoro-2-(4-fluorophenyl)butanamide] | 4.8 | 8.5 |  |  | > 20000
CC1(C)Cc2[nH]c(-c3ccnc(NC(=O)Cc4ccc(F)cc4)c3)c(-c3cccnc3)c2C(=O)N1 [Example 93, N-{4-[6,6-dimethyl-4-oxo-3-(pyridin-3-yl)-4,5,6,7-tetrahydro-1H-pyrrolo[3,2-c]pyridin-2-yl]pyridin-2-yl}-2-(4-fluorophenyl)acetamide] | 9.3 | 4 |  |  | > 20000
O=C(Nc1cc(-c2[nH]c3ccn(C4CC4)c(=O)c3c2-c2ccc(F)cc2)ccn1)C(CC(F)F)c1ccc(F)cc1 (single isomer, unassigned; (-)) [Example 135, (−)-N-{4-[5-cyclopropyl-3-(4-fluorophenyl)-4-oxo-4,5-dihydro-1H-pyrrolo[3,2-c]pyridin-2-yl]pyridin-2-yl}-4,4-difluoro-2-(4-fluorophenyl)butanamide] | 5.4 | 7.8 | > 20000 |  | 
CC(C(=O)Nc1cc(-c2[nH]c3c(c2-c2cccnc2)C(=O)NC(C)(C)C3)ccn1)c1ccc(F)cc1 (single isomer, unassigned) [Example 99, N-{4-[6,6-dimethyl-4-oxo-3-(pyridin-3-yl)-4,5,6,7-tetrahydro-1H-pyrrolo[3,2-c]pyridin-2-yl]pyridin-2-yl}-2-(4-fluorophenyl)propanamide] | 5.5 | 4.3 |  |  | > 20000
CC(C(=O)Nc1cc(-c2[nH]c3ccn(C)c(=O)c3c2-c2cccc(Cl)c2)ccn1)c1ccc(F)cc1 (racemic) [Example 106, N-{4-[3-(3-chlorophenyl)-5-methyl-4-oxo-4,5-dihydro-1H-pyrrolo[3,2-c]pyridin-2-yl]pyridin-2-yl}-2-(4-fluorophenyl)propanamide] | 11 | 9.2 | > 20000 |  | 
COCCNC(=O)c1ccc(CC(=O)Nc2cc(-c3[nH]c4ccn(C)c(=O)c4c3-c3ccc(F)cc3)ccn2)cc1 [Example 142, 4-[2-({4-[3-(4-fluorophenyl)-5-methyl-4-oxo-4,5-dihydro-1H-pyrrolo[3,2-c]pyridin-2-yl]pyridin-2-yl}amino)-2-oxoethyl]-N-(2-methoxyethyl)benzamide] | 3.8 | 2.7 |  |  | > 20000
CN1CCc2[nH]c(-c3ccnc(NC(=O)C(CC(F)F)c4ccc(F)cc4)c3)c(-c3cscn3)c2C1=O (racemic) [Example 138, 4,4-difluoro-2-(4-fluorophenyl)-N-{4-[5-methyl-4-oxo-3-(1,3-thiazol-4-yl)-4,5,6,7-tetrahydro-1H-pyrrolo[3,2-c]pyridin-2-yl]pyridin-2-yl}butanamide] | 8.8 | 8.9 | > 20000 |  | 
CC(C(=O)Nc1cc(-c2[nH]c3ccn(C)c(=O)c3c2-c2cccs2)ccn1)c1ccc(F)cc1 (racemic) [Example 130, 2-(4-fluorophenyl)-N-{4-[5-methyl-4-oxo-3-(2-thienyl)-4,5-dihydro-1H-pyrrolo[3,2-c]pyridin-2-yl]pyridin-2-yl}propanamide] | 3.9 | 2.4 | > 20000 |  | 
O=C(Nc1cc(-c2[nH]c3ccn(C4CC4)c(=O)c3c2-c2ccccc2)ccn1)C(CC(F)F)c1ccc(F)cc1 (racemic) [Example 137, N-[4-(5-cyclopropyl-4-oxo-3-phenyl-4,5-dihydro-1H-pyrrolo[3,2-c]pyridin-2-yl)pyridin-2-yl]-4,4-difluoro-2-(4-fluorophenyl)butanamide] | 3 | 2.6 | > 20000 |  | 
CC(C(=O)Nc1cc(-c2[nH]c3ccn(C)c(=O)c3c2-c2ccc(F)cc2)ccn1)c1ccc(F)cc1 (single isomer, unassigned; (+)) [Example 102, (+)-2-(4-fluorophenyl)-N-{4-[3-(4-fluorophenyl)-5-methyl-4-oxo-4,5-dihydro-1H-pyrrolo[3,2-c]pyridin-2-yl]pyridin-2-yl}propanamide] | 2 | 1 | 875 |  | 
CC(C(=O)Nc1cc(-c2[nH]c3ccn(C)c(=O)c3c2-c2cc(F)c(F)c(F)c2)ccn1)c1ccc(F)cc1 (racemic) [Example 117, 2-(4-fluorophenyl)-N-{4-[5-methyl-4-oxo-3-(3,4,5-trifluorophenyl)-4,5-dihydro-1H-pyrrolo[3,2-c]pyridin-2-yl]pyridin-2-yl}propanamide] | 7.4 | 4.7 | > 20000 |  | 
Cc1ncc(-c2c(-c3ccnc(NC(=O)C(CC(F)F)c4ccc(F)cc4)c3)[nH]c3c2C(=O)N(C)CC3)s1 (racemic) [Example 129, 4,4-difluoro-2-(4-fluorophenyl)-N-{4-[5-methyl-3-(2-methyl-1,3-thiazol-5-yl)-4-oxo-4,5,6,7-tetrahydro-1H-pyrrolo[3,2-c]pyridin-2-yl]pyridin-2-yl}butanamide] | 13 | 15 | > 20000 |  | 
CC(C(=O)Nc1cc(-c2[nH]c3ccn(C)c(=O)c3c2-c2ccoc2)ccn1)c1ccc(F)cc1 (racemic) [Example 115, 2-(4-fluorophenyl)-N-{4-[3-(3-furyl)-5-methyl-4-oxo-4,5-dihydro-1H-pyrrolo[3,2-c]pyridin-2-yl]pyridin-2-yl}propanamide] | 5.6 | 2.2 | > 20000 |  | 
CN1CCc2[nH]c(-c3ccnc(NC(=O)C(CC(F)F)c4ccc(F)cc4)c3)c(-c3ccc(F)cc3F)c2C1=O (single isomer, unassigned) [Example 67, N-{4-[3-(2,4-difluorophenyl)-5-methyl-4-oxo-4,5,6,7-tetrahydro-1H-pyrrolo[3,2-c]pyridin-2-yl]pyridin-2-yl}-4,4-difluoro-2-(4-fluorophenyl)butanamide] | 8.6 | 16 | > 20000 |  | 
